The values below come from patent US9216999B2, “Substituted pyrrolo[2,3-h][1,6]naphthyridines and compositions thereof as JAK inhibitors” (priority 2011, dated 2015).

Where two headings read alike, the source gives them in different places.

Common to all, as to assay type: biochemical
One assay concerns the target JAK1 (Homo sapiens (Human), UniProt P23458). The assay is described as follows: Enzyme assay (Assay Example^a 1), JAK1. Conditions: ATP 100 μM.
A further assay has as its target JAK2 (Homo sapiens (Human), UniProt O60674). The assay is described as follows: Enzyme assay (Assay Example^a 1), JAK2.
The target in a further assay is JAK3 (Homo sapiens (Human), UniProt P52333). The assay is described as follows: Enzyme assay (Assay Example^a 1), JAK3. Conditions: ATP 100 μM.
The target in the next assay is Tyk2 (Homo sapiens (Human), UniProt P29597). The assay is described as follows: Enzyme assay (Assay Example^a 1), Tyk2. Conditions: ATP 100 μM.
Chain of Tyk2 (P29597 whole entry): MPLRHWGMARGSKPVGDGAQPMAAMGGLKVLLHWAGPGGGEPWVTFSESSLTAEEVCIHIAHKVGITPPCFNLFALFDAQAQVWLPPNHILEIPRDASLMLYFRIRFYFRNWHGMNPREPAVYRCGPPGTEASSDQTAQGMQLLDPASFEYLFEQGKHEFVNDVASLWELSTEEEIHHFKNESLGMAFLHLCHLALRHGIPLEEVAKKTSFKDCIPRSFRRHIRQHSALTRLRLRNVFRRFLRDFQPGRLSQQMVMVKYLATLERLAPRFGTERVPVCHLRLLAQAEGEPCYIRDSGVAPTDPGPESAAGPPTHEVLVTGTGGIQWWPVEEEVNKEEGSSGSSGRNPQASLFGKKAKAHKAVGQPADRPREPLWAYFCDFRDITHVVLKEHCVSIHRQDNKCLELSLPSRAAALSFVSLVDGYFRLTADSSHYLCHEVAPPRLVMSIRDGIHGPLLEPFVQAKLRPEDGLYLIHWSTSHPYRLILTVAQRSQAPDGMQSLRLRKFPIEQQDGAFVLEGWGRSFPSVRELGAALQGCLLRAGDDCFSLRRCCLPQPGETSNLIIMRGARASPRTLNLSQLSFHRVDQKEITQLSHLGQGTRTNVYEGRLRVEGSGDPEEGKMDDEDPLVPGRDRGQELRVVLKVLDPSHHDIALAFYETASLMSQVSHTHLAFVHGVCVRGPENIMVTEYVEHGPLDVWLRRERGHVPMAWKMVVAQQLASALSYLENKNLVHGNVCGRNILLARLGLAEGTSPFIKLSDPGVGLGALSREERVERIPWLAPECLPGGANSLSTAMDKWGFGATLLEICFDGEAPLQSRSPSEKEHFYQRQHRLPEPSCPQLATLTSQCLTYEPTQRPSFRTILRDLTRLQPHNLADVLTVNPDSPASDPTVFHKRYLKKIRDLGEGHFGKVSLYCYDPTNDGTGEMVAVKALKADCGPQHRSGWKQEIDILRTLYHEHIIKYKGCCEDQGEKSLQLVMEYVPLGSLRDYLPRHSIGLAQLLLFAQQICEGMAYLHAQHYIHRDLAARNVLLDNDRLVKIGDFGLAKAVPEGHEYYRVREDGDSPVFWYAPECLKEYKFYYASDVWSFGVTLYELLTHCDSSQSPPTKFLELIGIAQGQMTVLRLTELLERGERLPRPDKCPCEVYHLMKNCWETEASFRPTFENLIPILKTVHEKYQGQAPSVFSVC

Chain of JAK3 (P52333 whole entry): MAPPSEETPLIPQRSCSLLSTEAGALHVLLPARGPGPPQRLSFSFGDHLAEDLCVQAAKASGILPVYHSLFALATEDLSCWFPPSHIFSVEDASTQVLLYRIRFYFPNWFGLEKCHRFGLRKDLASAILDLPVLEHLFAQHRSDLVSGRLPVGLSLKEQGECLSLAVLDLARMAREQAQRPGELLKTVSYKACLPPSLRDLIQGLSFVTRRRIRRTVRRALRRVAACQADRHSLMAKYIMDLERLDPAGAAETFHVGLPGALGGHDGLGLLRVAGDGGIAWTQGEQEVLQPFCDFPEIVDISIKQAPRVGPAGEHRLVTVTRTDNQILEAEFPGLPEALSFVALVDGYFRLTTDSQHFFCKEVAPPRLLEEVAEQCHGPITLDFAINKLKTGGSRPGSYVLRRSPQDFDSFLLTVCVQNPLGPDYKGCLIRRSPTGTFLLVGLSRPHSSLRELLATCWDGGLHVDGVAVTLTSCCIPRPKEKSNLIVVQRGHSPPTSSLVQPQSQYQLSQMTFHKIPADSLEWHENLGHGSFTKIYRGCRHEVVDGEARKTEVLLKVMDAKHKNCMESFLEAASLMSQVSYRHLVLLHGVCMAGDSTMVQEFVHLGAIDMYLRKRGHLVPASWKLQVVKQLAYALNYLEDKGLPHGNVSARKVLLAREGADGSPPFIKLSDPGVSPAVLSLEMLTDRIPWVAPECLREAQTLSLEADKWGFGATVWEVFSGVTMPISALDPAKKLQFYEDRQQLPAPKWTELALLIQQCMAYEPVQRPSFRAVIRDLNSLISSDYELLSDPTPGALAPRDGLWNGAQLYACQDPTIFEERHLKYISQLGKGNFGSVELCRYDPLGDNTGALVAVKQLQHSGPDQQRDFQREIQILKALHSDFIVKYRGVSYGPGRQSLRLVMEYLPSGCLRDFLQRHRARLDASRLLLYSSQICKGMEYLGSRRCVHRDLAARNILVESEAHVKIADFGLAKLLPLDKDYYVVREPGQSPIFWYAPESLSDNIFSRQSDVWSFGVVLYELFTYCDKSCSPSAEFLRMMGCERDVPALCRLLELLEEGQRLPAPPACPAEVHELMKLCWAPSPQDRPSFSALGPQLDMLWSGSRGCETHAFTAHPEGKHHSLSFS

Consider `N#CC(C#N)=C[C@H]1CC[C@H](c2nnn3cnc4[nH]ccc4c23)CC1` [compound 431, 2-{[trans-4-(7H-Pyrrolo[3,2-e][1,2,3]triazolo[1,5-c]pyrimidin-1-yl)cyclohexyl]methylene}malononitrile], for which the IC50 against JAK1 worked out at 0.0048 µM; at JAK2 (ATP 100 μM), 0.013 µM; on JAK3, 0.29 µM; on Tyk2, 0.24 µM.
In the same order, the values of `CC(C)(C)OC(=O)N1CC(CC#N)(NC[C@H]2CC[C@H](c3nnn4cnc5[nH]ccc5c34)CC2)C1` [compound 428, tert-Butyl 3-({[trans-4-(7H-pyrrolo[3,2-e][1,2,3]triazolo[1,5-c]pyrimidin-1-yl)cyclohexyl]methyl}amino)-3-(cyanomethyl)azetidine-1-carboxylate] are 0.19 µM, 0.75 µM, above 1 µM and above 1 µM.
As for `N#CCN1CCC(c2nnn3cnc4[nH]ccc4c23)CC1` [compound 246, 2-[4-(7H-pyrrolo[3,2-e][1,2,3]triazolo[1,5-c]pyrimidin-1-yl)piperidin-1-yl]acetonitrile], the IC50 on JAK1 was 0.0053 µM; against JAK2 (ATP 100 μM), 0.019 µM; on JAK3, 0.28 µM; on Tyk2, 0.14 µM.
With `CN1CCC(c2nnn3cnc4[nH]ccc4c23)CC1` [compound 216, 1-(1-methylpiperidin-4-yl)-7H-pyrrolo[3,2-e][1,2,3]triazolo[1,5-c]pyrimidine], the IC50 against JAK1 was 0.38 µM; against JAK2 it was above 1 µM; at JAK3, above 1 µM; at Tyk2 it was above 1 µM.
On to `OC1(C(F)(F)F)CN(C[C@H]2CC[C@H](c3nnn4cnc5[nH]ccc5c34)CC2)C1` [compound 425, 1-{[trans-4-(7H-Pyrrolo[3,2-e][1,2,3]triazolo[1,5-c]pyrimidin-1-yl)cyclohexyl]methyl}-3-(trifluoromethyl)azetidin-3-ol], for which the IC50 stood at 0.0025 µM against JAK1, 0.022 µM on JAK2 (ATP 100 μM), 0.082 µM against JAK3 and 0.37 µM on Tyk2.
Consider `OCCOc1ccc(CN2CCC(c3nnn4cnc5[nH]ccc5c34)CC2)cc1` [compound 168, 2-(4-{[4-(7H-pyrrolo[3,2-e][1,2,3]triazolo[1,5-c]pyrimidin-1-yl)piperidin-1-yl]methyl}phenoxy)ethanol], for which the IC50 is 0.084 µM on JAK1 (Table^a 154); 0.71 µM at JAK2 (ATP 100 μM, Table^a 154); above 1 µM against JAK3 (Table^a 154); above 1 µM at Tyk2 (Table^a 154).
`FC(F)(F)COC1CN(C[C@H]2CC[C@H](c3nnn4cnc5[nH]ccc5c34)CC2)C1` [compound 421, 1-(trans-4-{[3-(2,2,2-Trifluoroethoxy)azetidin-1-yl]methyl}cyclohexyl)-7H-pyrrolo[3,2-e][1,2,3]triazolo[1,5-c]pyrimidine]: the IC50 is 0.01 µM against JAK1, 0.17 µM at JAK2 (ATP 100 μM), above 1 µM at JAK3 and above 1 µM at Tyk2.
Consider `FC(F)(F)C(NC[C@H]1CC[C@H](c2nnn3cnc4[nH]ccc4c23)CC1)C(F)(F)F` [compound 317, N-{[trans-4-(7H-pyrrolo[3,2-e][1,2,3]triazolo[1,5-c]pyrimidin-1-yl)cyclohexyl]methyl}-1,1,1,3,3,3-hexafluoropropan-2-amine], for which the IC50 worked out at 0.0013 µM against JAK1, 0.016 µM on JAK2 (ATP 100 μM), 0.47 µM on JAK3 and 0.62 µM on Tyk2.
For the molecule `Fc1ccc(CN2CCC(c3nnn4cnc5[nH]ccc5c34)CC2)cc1F` [compound 166, 1-[1-(3,4-difluorobenzyl)piperidin-4-yl]-7H-pyrrolo[3,2-e][1,2,3]triazolo[1,5-c]pyrimidine], the IC50 against JAK1 (Table^a 154) was 0.0053 µM; at JAK2 (ATP 100 μM, Table^a 154), 0.023 µM; on JAK3 (Table^a 154) it was 0.17 µM; against Tyk2 (Table^a 154), 0.49 µM.
Consider `c1cc2c(ncn3nnc(C4CCN(Cc5cscn5)CC4)c23)[nH]1` [compound 240, 4-{[4-(7H-pyrrolo[3,2-e][1,2,3]triazolo[1,5-c]pyrimidin-1-yl)piperidin-1-yl]methyl}thiazole], for which the IC50 was 0.039 µM against JAK1, 0.11 µM at JAK2 (ATP 100 μM), 0.6 µM against JAK3 and above 1 µM against Tyk2.
In the same order, the values of `c1cc2c(ncn3nnc(C4CCCCC4)c23)[nH]1` [compound 6] are 0.0038 µM, 0.012 µM, 0.15 µM and 0.046 µM.
For `CN(C)C[C@H]1CC[C@H](c2nnn3cnc4[nH]ccc4c23)CC1` [compound 296, 1-[trans-4-(7H-pyrrolo[3,2-e][1,2,3]triazolo[1,5-c]pyrimidin-1-yl)cyclohexyl]-N,N-dimethylmethanamine], the IC50 at JAK1 was found to be 0.0038 µM; against JAK2 (ATP 100 μM), 0.065 µM; against JAK3, 0.73 µM; against Tyk2 it was 0.19 µM.
In the same order, the values of `c1cc2c(ncn3nnc([C@H]4CC[C@H](CNC5CC5)CC4)c23)[nH]1` [compound 280, N-{[trans-4-(7H-pyrrolo[3,2-e][1,2,3]triazolo[1,5-c]pyrimidin-1-yl)cyclohexyl]methyl}cyclopropanamine] are 0.0019 µM, 0.062 µM, 0.68 µM and 0.1 µM.
In the same order, the values of `COc1ccc(C(O)(CN[C@H]2CC[C@H](c3nnn4cnc5[nH]ccc5c34)CC2)C(F)(F)F)cn1` (stereo partly drawn) [387b, 3-{[trans-4-(7H-pyrrolo[3,2-e][1,2,3]triazolo[1,5-c]pyrimidin-1-yl)cyclohexyl]amino}-1,1,1-trifluoro-2-(6-methoxypyridin-3-yl)propan-2-ol] are 0.0019 µM, 0.032 µM, 0.12 µM and 0.18 µM.
The matching figures for `N#CCCN1CCN(C[C@H]2CC[C@H](c3nnn4cnc5[nH]ccc5c34)CC2)CC1` [compound 314, 3-(4-{[trans-4-(7H-pyrrolo[3,2-e][1,2,3]triazolo[1,5-c]pyrimidin-1-yl)cyclohexyl]methyl}piperazin-1-yl)propanenitrile]: 0.008 µM, 0.19 µM, above 1 µM and 0.75 µM.
As for `CC(=O)N[C@@H]1CCN(C[C@H]2CC[C@H](c3nnn4cnc5[nH]ccc5c34)CC2)C1` [compound 318, N-((R)-1-{[trans-4-(7H-pyrrolo[3,2-e][1,2,3]triazolo[1,5-c]pyrimidin-1-yl)cyclohexyl]methyl}pyrrolidin-3-yl)acetamide], the IC50 on JAK1 was 0.0048 µM; against JAK2 (ATP 100 μM) it was 0.057 µM; at JAK3 it was above 1 µM; on Tyk2, 0.61 µM.
In the case of `N#CCC(=O)N(C[C@H]1CC[C@H](c2nnn3cnc4[nH]ccc4c23)CC1)C1CC1` [compound 409, N-{[trans-4-(7H-pyrrolo[3,2-e][1,2,3]triazolo[1,5-c]pyrimidin-1-yl)cyclohexyl]methyl}-2-cyano-N-cyclopropylacetamide], the IC50 was determined as 0.019 µM at JAK1, 0.032 µM at JAK2 (ATP 100 μM), 0.92 µM against JAK3 and 0.84 µM at Tyk2.
With `OCCNC[C@H]1CC[C@H](c2nnn3cnc4[nH]ccc4c23)CC1` [compound 272, 2-({[trans-4-(7H-pyrrolo[3,2-e][1,2,3]triazolo[1,5-c]pyrimidin-1-yl)cyclohexyl]methyl}amino)ethanol], the IC50 turned out to be 0.0035 µM at JAK1, 0.053 µM against JAK2 (ATP 100 μM), 0.43 µM against JAK3 and 0.094 µM against Tyk2.
Take `O=C(NC[C@@H](O)c1ccccc1)[C@H]1CC[C@H](c2nnn3cnc4[nH]ccc4c23)CC1` [compound 353, trans-N-[(S)-2-hydroxy-2-phenylethyl]-4-(7H-pyrrolo[3,2-e][1,2,3]triazolo[1,5-c]pyrimidin-1-yl)cyclohexanecarboxamide]: the IC50 worked out at 0.0029 µM at JAK1, 0.031 µM against JAK2 (ATP 100 μM), 0.35 µM at JAK3 and 0.46 µM at Tyk2.
Take `CCOC(=O)CC1CCC(c2nnn3cnc4[nH]ccc4c23)CC1` (stereo not shown) [compound 438, Ethyl 2-[4-(7H-pyrrolo[3,2-e][1,2,3]triazolo[1,5-c]pyrimidin-1-yl)cyclohexyl]acetate]: the IC50 was determined as 0.017 µM on JAK1, 0.044 µM against JAK2 (ATP 100 μM), 0.34 µM against JAK3 and 0.58 µM on Tyk2.
`c1ccc(CCCN[C@H]2CC[C@@H](c3nnn4cnc5[nH]ccc5c34)CC2)cc1` [136a]: the IC50 at JAK1 (Table^a 154) is 0.14 µM; against JAK2 (ATP 100 μM, Table^a 154), above 1 µM; at JAK3 (Table^a 154) it was above 1 µM; against Tyk2 (Table^a 154) it was above 1 µM.
Regarding `Fc1cc(Cl)ccc1CN1CCC(c2nnn3cnc4[nH]ccc4c23)CC1` [compound 158], the IC50 against JAK1 (Table^a 154) stood at 0.0007 µM; against JAK2 (ATP 100 μM, Table^a 154) it was 0.0044 µM; against JAK3 (Table^a 154), 0.059 µM; at Tyk2 (Table^a 154), 0.097 µM.
Turning to `Clc1ccc(CN2CCC(c3nnn4cnc5[nH]ccc5c34)CC2)c(Cl)n1` [compound 231, 1-{1-[(2,6-dichloropyridin-3-yl)methyl]piperidin-4-yl}-7H-pyrrolo[3,2-e][1,2,3]triazolo[1,5-c]pyrimidine], the IC50 against JAK1 turned out to be 0.0043 µM; against JAK2 (ATP 100 μM), 0.023 µM; on JAK3, 0.23 µM; on Tyk2, 0.61 µM.
`O=C(NC1CC1)[C@H]1CC[C@H](c2nnn3cnc4[nH]ccc4c23)CC1` [compound 359, trans-N-cyclopropyl-4-(7H-pyrrolo[3,2-e][1,2,3]triazolo[1,5-c]pyrimidin-1-yl)cyclohexanecarboxamide]: the IC50 against JAK1 is 0.042 µM; at JAK2 (ATP 100 μM), 0.22 µM; against JAK3, above 1 µM; against Tyk2, 0.56 µM.
As to `c1cc2c(ncn3nnc([C@H]4CC[C@H](CN5CCCC5)CC4)c23)[nH]1` [compound 287, 1-[trans-4-(pyrrolidin-1-ylmethyl)cyclohexyl]-7H-pyrrolo[3,2-e][1,2,3]triazolo[1,5-c]pyrimidine], the IC50 at JAK1 was 0.0065 µM; against JAK2 (ATP 100 μM), 0.077 µM; against JAK3, above 1 µM; against Tyk2 it was 0.33 µM.
